Data as given in patent publication US10548877B2, “Aromatic ring compound” (TAKEDA PHARMACEUTICAL COMPANY LIMITED, priority 2016, dated 2020).

Biological target: T1, human M1 receptor (hCHRM1) (Homo sapiens, UniProt P11229)
T1 construct: expressed in transfected cells
T1 sequence (P11229 1-460): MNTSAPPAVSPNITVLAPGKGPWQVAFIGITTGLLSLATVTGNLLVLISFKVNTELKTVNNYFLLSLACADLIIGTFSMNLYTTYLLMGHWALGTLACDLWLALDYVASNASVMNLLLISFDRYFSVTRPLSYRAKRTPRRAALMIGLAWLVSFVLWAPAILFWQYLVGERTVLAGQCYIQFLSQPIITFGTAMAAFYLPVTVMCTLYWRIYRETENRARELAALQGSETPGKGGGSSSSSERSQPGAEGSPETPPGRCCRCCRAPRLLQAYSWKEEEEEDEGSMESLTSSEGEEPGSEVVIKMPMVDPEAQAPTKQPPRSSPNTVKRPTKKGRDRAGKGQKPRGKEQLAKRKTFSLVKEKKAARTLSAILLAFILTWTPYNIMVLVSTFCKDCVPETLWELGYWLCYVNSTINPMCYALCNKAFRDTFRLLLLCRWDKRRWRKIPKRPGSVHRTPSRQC
Test: Measurement of M1 receptor positive allosteric modulator (M1PAM) activity (calcium fluorescence, Fluo-4)
Type: cell-based
Conditions: for EC50: inflection point of concentration-dependent curve, CHO-K1 cells stably expressing hCHRM1, in presence of acetylcholine at EC20 (final 0.8-1.0 nM), read-out: IP value; for activity (%) at 10 μM: test compound 10 μM with acetylcholine at EC20, 100% = 1 μM acetylcholine, 0% = DMSO, CHO-K1 cells expressing hCHRM1
Experimental: Measurement of M1 Receptor Positive Allosteric Modulator (M1PAM) Activity
The activity of a test compound in the presence of acetylcholine at EC20 concentration (final concentration 0.8-1.0 nM), which affords an action corresponding to about 20% of the maximum activity, was measured as PAM activity. The method is as follows. CHO-K1 cells stably expressing a human M1 receptor (hCHRM1) were plated on a 384-well black clear bottom plate (BD Falcon) at 5,000 cells/well, and cultured in an incubator at 37° C., 5% CO2 for 1 day. The medium in the cell plate was removed, and assay buffer A containing a calcium indicator (Recording medium (DOJINDO LABORATORIES), 0.1% BSA (Wako Pure Chemical Industries, Ltd.), 2.5 μg/mL Fluo-4 AM (DOJINDO LABORATORIES), 0.08% Pluronic F127 (DOJINDO LABORATORIES) and 1.25 mM probenecid (DOJINDO LABORATORIES) were added at 30 μL/well. The cells were left standing in the incubator at 37° C., 5% CO2 for 30 min, and further left standing at room temperature for 30 min. A test compound prepared by diluting with assay buffer B (HBSS (Invitrogen), 20 mM HEPES (Invitrogen), 0.1% BSA) containing 3.2-4.0 nM acetylcholine was added at 10 μL/well, and the fluorescence was measured by FDSS/pcell (Hamamatsu Photonics K.K.) for 1 min every for 1 second. With the definition that the amount of change in the fluorescence on addition of acetylcholine (final concentration 1 μM) is 100% and that on addition of DMSO instead of a test compound is 0%, the activity (%) of the test compound was calculated, and the inflection point in the concentration-dependent curve of the test compound was calculated as IP values.

## COc1c(C(=O)N[C@H]2CCC[C@@H]2O)cc(Cc2ccc(-n3cccn3)cc2)c(C)c1C (relative stereo) [Example 2, N-(trans-2-hydroxycyclopentyl)-2-methoxy-3,4-dimethyl-5-(4-(1H-pyrazol-1-yl)benzyl)benzamide]
  EC50: 0.095 µM
  activity (%) at 10 μM: 96%

## COc1c(C(=O)N[C@H]2CCCC[C@@H]2O)cc(Cc2ccc(-c3ccn(C)n3)nc2)c(C)c1C [Example 21, N-((1S,2S)-2-hydroxycyclohexyl)-2-methoxy-3,4-dimethyl-5-((6-(1-methyl-1H-pyrazol-3-yl)pyridin-3-yl)methyl)benzamide]
  EC50: 0.01 µM
  activity (%) at 10 μM: 96%

## CCOc1c(C(=O)N[C@H]2CCCC[C@@H]2O)cc(Cc2ccc(-c3cn(C)nn3)cc2)c(C)c1C [Example 15, 2-ethoxy-N-((1S,2S)-2-hydroxycyclohexyl)-3,4-dimethyl-5-(4-(1-methyl-1H-1,2,3-triazol-4-yl)benzyl)benzamide]
  EC50: 0.014 µM
  activity (%) at 10 μM: 100%

## COc1c(C(=O)N[C@H]2COCC[C@@H]2O)cc(Cc2ccc(-c3ccn(C)n3)nc2)c(C)c1C [Example 31, 1,5-anhydro-2,4-dideoxy-2-((2-methoxy-3,4-dimethyl-5-((6-(1-methyl-1H-pyrazol-3-yl)pyridin-3-yl)methyl)benzoyl)amino)-L-threo-pentitol]
  EC50: 0.067 µM
  activity (%) at 10 μM: 97%

## COc1c(C(=O)N[C@H]2COCC[C@@H]2O)cc(Cc2ccc(-n3cccn3)cc2)c(C)c1C [Example 27, 1,5-anhydro-2,4-dideoxy-2-((2-methoxy-3,4-dimethyl-5-(4-(1H-pyrazol-1-yl)benzyl)benzoyl)amino)-L-threo-pentitol]
  EC50: 0.039 µM
  activity (%) at 10 μM: 100%

## COc1c(C(=O)N[C@H]2CCOC[C@@H]2O)cc(Cc2ccc(-c3cn(C)nn3)cc2)c(C)c1C [Example 24, 1,5-anhydro-2,3-dideoxy-3-((2-methoxy-3,4-dimethyl-5-(4-(1-methyl-1H-1,2,3-triazol-4-yl)benzyl)benzoyl)amino)-L-threo-pentitol]
  EC50: 0.0026 µM
  activity (%) at 10 μM: 95%

## COc1c(C(=O)N[C@H]2COCC[C@@H]2O)cc(Cc2ccc(-c3cn(C)nc3C)nc2)c(C)c1C [Example 28, 1,5-anhydro-2,4-dideoxy-2-((5-((6-(1,3-dimethyl-1H-pyrazol-4-yl)pyridin-3-yl)methyl)-2-methoxy-3,4-dimethylbenzoyl)amino)-L-threo-pentitol]
  EC50: 0.02 µM
  activity (%) at 10 μM: 100%

## COc1c(C(=O)N[C@H]2COCC[C@@H]2O)cc(Cc2ccc(-c3ccn(C)n3)cc2)c(C)c1C [Example 26, 1,5-anhydro-2,4-dideoxy-2-((2-methoxy-3,4-dimethyl-5-(4-(1-methyl-1H-pyrazol-3-yl)benzyl)benzoyl)amino)-L-threo-pentitol]
  EC50: 0.031 µM
  activity (%) at 10 μM: 99%

## Cc1c(Cc2ccc(-n3cccn3)cc2)cc(C(=O)N[C@H]2COCC[C@@H]2O)c(F)c1F [Example 25, 1,5-anhydro-2,4-dideoxy-2-((2,3-difluoro-4-methyl-5-(4-(1H-pyrazol-1-yl)benzyl)benzoyl)amino)-L-threo-pentitol]
  EC50: 0.033 µM
  activity (%) at 10 μM: 97%

## Cc1c(Cc2ccc(-n3cccn3)cc2)cc(C(=O)N[C@H]2COCC[C@@H]2O)c(F)c1C [Example 12, 2-fluoro-N-((3S,4S)-4-hydroxytetrahydro-2H-pyran-3-yl)-3,4-dimethyl-5-(4-(1H-pyrazol-1-yl)benzyl)benzamide]
  EC50: 0.019 µM
  activity (%) at 10 μM: 103%

## COc1c(C(=O)N[C@H]2CCCC[C@@H]2O)cc(Cc2ccc(-c3cn(C)nn3)cc2)c(C)c1C (single isomer, unassigned) [Example 10, N-(trans-2-hydroxycyclohexyl)-2-methoxy-3,4-dimethyl-5-(4-(1-methyl-1H-1,2,3-triazol-4-yl)benzyl)benzamide]
  EC50: 0.0048 µM
  activity (%) at 10 μM: 106%
